US12589087B2, “Enantiomer selective action on neurotransmission” (The Board of Trustees of the Leland Stanford Junior …, priority 2021, dated 2026)

Tests used:
[1] = target: T1, human glutamine synthetase (Homo sapiens, UniProt P15104); test: Catalysis of 2MeGlu C5-amidation by glutamine synthetase; type: biochemical
T1 construct: purchased Abcam ab222354
Procedure: The procedure was adapted from an existing protocol. To a reaction mixture in a 1.5 mL microcentrifuge tube containing 10 mM substrate, 10 mM ATP, 20 mM MgCl2, 40 mM NH4Cl, 25 mM 2-mercaptoethanol in 100 mM imidazole-HCl buffer pH 7.0, recombinant human glutamine synthetase (final concentration: 5 ng/mL) was added. The tubes were incubated in a preheated thermomixer at 37° C. and shaken at 600 rpm (30 s on, 30 s off). 5 μL aliquots were collected in triplicate every 5 min and immediately diluted with 195 μL of cold 60% ACN containing 10 μM Glu-d5 and Gln-d5 as internal standards in a 96 well plate. After collecting all samples, 200 μL of ACN was added to all wells and the plate was shaken at 1000 rpm for 5 min at room temperature, and then stored at −80° C. until analysis.

[2] = tested on: mouse cerebral synaptosomes; test: Potassium-induced neurotransmitter release assay; type: cell-based; conditions: preloaded with 100 μM for 15 min at 37° C., high-potassium depolarization
Procedure: To each tube, 2.5 μL of a test compound solution (final concentration 100 μM) in Buffer KRP or Buffer KRP alone were added. Samples were incubated for 15 min at 37° C., briefly chilled on ice, and then immediately centrifuged and washed twice with Buffer KRP. The resulting pellets were then resuspended in either Buffer KRP (500 μL) or Buffer K-KRP (500 μL). Samples were immediately centrifuged or incubated for 5, 10 or 15 min at 37° C., then centrifuged and washed with Buffer KRP. Resulting pellets were resuspended in 400 μL of 60% ACN containing 2.5 μM Glu-d5 and 2.5 μM Gln-d5 as internal standards.
Synaptosome uptake and high potassium-induced release assays were performed as described in Example 1. Uptake assays used 250 μL aliquots of the synaptosome suspension transferred to a pre-chilled 0.8 mL 96 well plate. 5 μL of a test compound solution (0.5 mM; final concentration: 10 μM to compare directly to our previous work was added to each well and incubated at 0° C. or 37° C. After 10, 20 or 30 min, samples were chilled on ice and immediately sedimented (2,500 g for 15 min at 4° C.) and washed with Buffer S (0.5 mL, ×2). Resulting pellets were resuspended in 200 μL of 60% ACN containing 5 μM GABA-d6 and stored at −80° C. until analysis. Potassium-induced release assay used 500 μL aliquots of the synaptosome suspension transferred to pre-chilled microcentrifuge tubes. 2.5 μL of a test compound solution (20 mM; final concentration: 100 μM) in Buffer KRP was added to each tube and incubated for 15 min at 37° C., briefly chilled on ice, and then immediately sedimented (8,000 g for 4 min at 4° C.) and washed with Buffer KRP, followed by centrifugation, twice. The resulting pellets were resuspended in 500 μL of Buffer KRP or Buffer K-KRP and incubated for 5, 10 or 15 min at 37° C., sedimented (8,000 g for 4 min at 4° C.), and washed with Buffer KRP. Resulting pellets were resuspended in 400 μL of 60% ACN containing 2.5 μM GABA-d6 as internal standard and stored at −80° C. until analysis.

[3] = tested on: C57Bl/6 mice; type: in vivo; conditions: for distance moved in the novel cage: single 100, 300, or 900 mg/kg IP, dose- and time-dependent
Procedure: Dosing: (R)-2MeGlu (30, 100, 300, or 900 mg/kg), (S)-2MeGlu (30, 100, 300, or 900 mg/kg), rac-2MeGln (30, 100, 300, or 900 mg/kg) and vehicle (PBS) were administered at 10 ml/kg IP dosing volume. Three mice were dosed once with the assigned drug (100, 300, or 900 mg/kg) or vehicle and immediately placed in a new cage for novel cage observation. Subsequently, six mice were dosed once with the assigned drug (30 or 100 mg/kg) or vehicle and tested by SHIRPA, activity chamber, and then hot plate tests.
The mouse was dosed and immediately placed in the center of a clean, Innovive disposable rat cage with bedding (dimensions: 17″L×13.4″W×7.8″H) and allowed to move freely while being tracked automatically. Mice were monitored with Ethovision XT tracking software for the distance moved and average velocity during the 60-minute trial. They were returned to their home cage after the test. A new cage was used for each mouse.
Exploratory behavioral tests were performed exactly as previously described by us using 2-month-old C57Bl/6 male mice, Example 1. First, we assessed safety and tolerability of acute exposure to 4APA enantiomers in 22 mice by novel cage observation at 100, 300, or 900 mg/kg IP compared to vehicle (PBS) IP (n=3 or 4 mice per group without sample calculation, based on our previous study. Next, we evaluated 24 drug naïve mice with a 23-measure battery of neurologic dysfunction in mice (SHIRPA) (Rogers et al., 2001), automated activity chamber assessment, and hot plate latency acutely following 30 or 100 mg/kg IP compared to vehicle IP (n=4 or 5 mice per group). No exclusion criteria were predetermined and no randomization was performed to allocate subjects in the study.

[4] = tested on: NMDA nonspecific; test: radioligand binding assay, cerebral cortex membranes, [3H]CGP 39653; conditions: NMDA nonspec, rat; 100 μM
Procedure: Nonspecific AMPA, kainate and NMDA binding assays were performed by Eurofins Discovery (Cerep) using rat cerebral cortex membranes and radiolabeled [^3H]AMPA, [^3H]kainic acid and [^3H]CGP 39653, respectively. All compounds were tested at a single concentration of 100 uM in triplicate. mGluR1, mGluR2, mGluR5 and GABAB binding assays were performed by Eurofins Discovery. mGluR1 assay was performed using rat cerebellum membranes and radiolabeled [^3H]quisqalic acid. mGluR2 assay was performed using recombinant Chem-1 cells and [^3H]LY341495. mGluR5 and GABAB binding assays were performed using recombinant CHO-K1 cells and […], respectively. All compounds were tested at a single concentration of 100 uM in triplicate.
All receptor assays were performed exactly as described in Example 1. Functional assays of all GABAA, NMDA (GluN2A-GluN2D) and AMPA (GluA2) receptor subunits were performed by SB Drug Discovery as a part of their CNS discovery panel using FLIPR technology. All compounds were tested at 7 concentrations in triplicate and EC50/IC50 was determined where applicable. Functional GABAB assay was performed by Eurofins Discovery (Cerep) using Ca^2+-dependent fluorimetry in RBL cells expressing human GABAB (B1/B2) receptor. All compounds were tested at a single concentration of 100 uM in triplicate. […]

T1 sequence (P15104 whole entry): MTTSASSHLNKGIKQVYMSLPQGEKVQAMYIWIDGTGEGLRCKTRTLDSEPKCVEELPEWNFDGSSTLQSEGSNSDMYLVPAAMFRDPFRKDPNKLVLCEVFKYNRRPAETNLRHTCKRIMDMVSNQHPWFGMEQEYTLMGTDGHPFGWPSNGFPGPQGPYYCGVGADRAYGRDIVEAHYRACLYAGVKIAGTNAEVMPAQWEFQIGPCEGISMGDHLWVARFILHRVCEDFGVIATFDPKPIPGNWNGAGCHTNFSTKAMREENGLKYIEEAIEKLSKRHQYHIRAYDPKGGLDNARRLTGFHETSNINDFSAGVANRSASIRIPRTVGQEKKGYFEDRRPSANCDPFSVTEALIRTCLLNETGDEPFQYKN

Row | Compound | substrate of GS (amidation to 2MeGln) [1] | potassium-induced release from synaptosomes [2] | mortality after single dose ([3]; mouse, in vivo) | distance moved in the novel cage [3] | % of radioligand binding inhibition [4]
1 | C[C@@](N)(CCC(=O)O)C(=O)O [(R)-2MeGlu, (R)-2-methylglutamic acid] | not a substrate | not significantly altered by depolarization | one mouse died | significantly decreased | 8%
2 | C[C@](N)(CCC(=O)O)C(=O)O [(S)-2MeGlu, (S)-2-methylglutamic acid] | substrates | released upon depolarization |  | significantly decreased | 3%
